Measured values from ChEMBL document CHEMBL4507327 (2021).
Blank lines part the entries; values can stand above or below the molecule they belong to.

What was measured:
[1] = molecular target: Interleukin-1 receptor-associated kinase 4 (Homo sapiens, UniProt Q9NWZ3); test: IRAK4(IRK4LGF1) Takeda global kinase panel
[2] = molecular target: Non-receptor tyrosine-protein kinase TNK1 (Homo sapiens, UniProt Q13470); test: Tnk1(TNK1LGY1) Takeda global kinase panel
[3] = molecular target: Bone morphogenetic protein receptor type-1B (Homo sapiens, UniProt O00238); test: BMPR1B(BM1BLGF1) Takeda global kinase panel
[4] = molecular target: Mitogen-activated protein kinase 1 (Homo sapiens, UniProt P28482); test: ERK2(MAP1LGY1) Takeda global kinase panel
[5] = molecular target: Casein kinase I isoform epsilon (Homo sapiens, UniProt P49674); test: CK1epsilon(CS1ELGI5) Takeda global kinase panel
[6] = molecular target: Serine/threonine-protein kinase PINK1, mitochondrial (Homo sapiens, UniProt Q9BXM7); test: PINK1(PIN1PHRE) Takeda global kinase panel
[7] = molecular target: Cyclin-dependent kinase 14 (Homo sapiens, UniProt O94921); test: PFTAIRE1(CD14CGS1) Takeda global kinase panel
[8] = molecular target: Dual specificity mitogen-activated protein kinase kinase 6 (Homo sapiens, UniProt P52564); test: MKK6 [MAP2K6(M2K6LGF1)] Takeda global kinase panel
[9] = molecular target: Casein kinase I isoform alpha (Homo sapiens, UniProt P48729); test: CK1alpha(C1A1PHY1) Takeda global kinase panel
[10] = molecular target: Tyrosine-protein kinase Fgr (Homo sapiens, UniProt P09769); test: Fgr(FGR1LGF1) Takeda global kinase panel
[11] = molecular target: Tyrosine-protein kinase Blk (Homo sapiens, UniProt P51451); test: BLK(BLK1CGF1) Takeda global kinase panel
[12] = molecular target: 5-hydroxytryptamine receptor 2B (Homo sapiens) (UniProt P41595); details: Compound concentration 10.0 uM
[13] = molecular target: D(1B) dopamine receptor (Homo sapiens) (UniProt P21918); test: Dopamine D5 Eurofins-Panlabs radioligand binding assay; details: Compound concentration 10.0 uM
SRSF protein kinase 3 = SRSF protein kinase 3 (Homo sapiens, UniProt Q9UPE1); test: MSSK1(SRP3MHRL) Takeda global kinase panel
[14] = molecular target: Androgen receptor (Homo sapiens) (UniProt P10275); details: Compound concentration 10.0 uM
TGF-beta receptor type-1 = TGF-beta receptor type-1 (Homo sapiens, UniProt P36897); test: TGFbetaR1(TGF1LGF1) Takeda global kinase panel
[15] = molecular target: Fibroblast growth factor receptor 3 (Homo sapiens, UniProt P22607); test: FGFR3(FGF3LGF1) Takeda global kinase panel
SRSF protein kinase 2 = SRSF protein kinase 2 (Homo sapiens, UniProt P78362); test: SRPK2(SRP2IGRL) Takeda global kinase panel
[16] = molecular target: Microtubule-associated serine/threonine-protein kinase 1 (Homo sapiens, UniProt Q9Y2H9); test: MAST1(MAS1LGE5) Takeda global kinase panel
[17] = molecular target: Beta-adrenergic receptor kinase 1 (Homo sapiens, UniProt P25098); test: BARK1 [GRK2(ADR1LGG5)] Takeda global kinase panel
[18] = molecular target: Vascular endothelial growth factor receptor 2 (Homo sapiens, UniProt P35968); test: KDR(KDR1CGY1) Takeda global kinase panel
[19] = molecular target: G protein-coupled receptor kinase 3 (Homo sapiens, UniProt P35626); test: BARK2 [GRK3(ADR2LGG5)] Takeda global kinase panel
[20] = molecular target: Gamma-aminobutyric acid type B receptor subunit 1 (Homo sapiens) (UniProt Q9UBS5); test: Inhibition of GABAB1A at compound concentration of 10.0 uM in the Eurofins-Panlabs radioligand binding assay (Eurofins_assay_228610); design: ligand concentration 4 nM; details: Compound concentration 10.0 uM
Ephrin type-A receptor 7 = Ephrin type-A receptor 7 (Homo sapiens, UniProt Q15375); test: EphA7(EPA7LGF1) Takeda global kinase panel
[21] = molecular target: Rho-associated protein kinase 2 (Homo sapiens, UniProt O75116); test: ROCK2(ROC2LGG1) Takeda global kinase panel
[22] = molecular target: Adenosine receptor A3 (Homo sapiens) (UniProt P0DMS8); details: Compound concentration 10.0 uM
[23] = molecular target: 3-phosphoinositide-dependent protein kinase 1 (Homo sapiens, UniProt O15530); test: PDK1(PDP1LGA1) Takeda global kinase panel
[24] = molecular target: G protein-coupled receptor kinase 6 (Homo sapiens, UniProt P43250); test: GRK6(GRK6LGP1) Takeda global kinase panel
[25] = molecular target: Mitogen-activated protein kinase kinase kinase kinase 5 (Homo sapiens, UniProt Q9Y4K4); test: KHS1(M4K5LGY1) Takeda global kinase panel
[26] = molecular target: Bone morphogenetic protein receptor type-1A (Homo sapiens, UniProt P36894); test: BMPR1A(BM1APHRG) Takeda global kinase panel
Wee1-like protein kinase = Wee1-like protein kinase (Homo sapiens, UniProt P30291); test: Wee1(WEE1LGF1) Takeda global kinase panel
[27] = molecular target: Ribosomal protein S6 kinase alpha-6 (Homo sapiens, UniProt Q9UK32); test: RSK4(R6A6LGF1) Takeda global kinase panel
[28] = molecular target: Serine/threonine-protein kinase Chk1 (Homo sapiens, UniProt O14757); test: CHK1(CHE1CGP1) Takeda global kinase panel
TGF-beta receptor type-2 = TGF-beta receptor type-2 (Homo sapiens, UniProt P37173); test: TGFbetaR2(TGF2LGY1) Takeda global kinase panel
[29] = molecular target: Protein kinase C delta type (Homo sapiens, UniProt Q05655); test: PKCdelta(PRKDPFP1) Takeda global kinase panel
[30] = molecular target: Casein kinase II subunit alpha' (Homo sapiens, UniProt P19784); test: CK2alpha2(C2A2LGK1) Takeda global kinase panel
[31] = molecular target: Cyclin-dependent kinase 8 (Homo sapiens, UniProt P49336); test: CDK8(CDK8CGS1) Takeda global kinase panel
[32] = molecular target: Mitogen-activated protein kinase kinase kinase 9 (Homo sapiens, UniProt P80192); test: MLK1(M3K9LGF1) Takeda global kinase panel
[33] = molecular target: Glucocorticoid receptor (Homo sapiens) (UniProt P04150); details: Compound concentration 10.0 uM
[34] = molecular target: Proto-oncogene tyrosine-protein kinase ROS (Homo sapiens, UniProt P08922); test: Ros(ROS1PHY1) Takeda global kinase panel
[35] = molecular target: Serine/threonine-protein kinase Nek1 (Homo sapiens, UniProt Q96PY6); test: Nek1(NEK1LGY1) Takeda global kinase panel
[36] = molecular target: Tyrosine-protein kinase ITK/TSK (Homo sapiens, UniProt Q08881); test: ITK(ITK1CGF1) Takeda global kinase panel
Rattus norvegicus = species: Rattus norvegicus; test: Inhibition of Glutamate, NMDA, Phencyclidine at 10 µM in the Eurofins-Panlabs radioligand binding assay (Eurofins_assay_233000); assay type: protein-complex assay; details: Compound concentration 10.0 uM
[37] = molecular target: RAC-gamma serine/threonine-protein kinase (Homo sapiens, UniProt Q9Y243); test: Akt3 [PKBgamma(AKT3LGY1)] Takeda global kinase panel
[38] = molecular target: Serine/threonine-protein kinase BRSK1 (Homo sapiens, UniProt Q8TDC3); test: BRSK1(BRS1LGA1) Takeda global kinase panel
Myotonin-protein kinase = Myotonin-protein kinase (Homo sapiens, UniProt Q09013); test: DMPK(DMPKLGF1) Takeda global kinase panel

TGF-beta receptor type-2, sequence (P37173 whole entry): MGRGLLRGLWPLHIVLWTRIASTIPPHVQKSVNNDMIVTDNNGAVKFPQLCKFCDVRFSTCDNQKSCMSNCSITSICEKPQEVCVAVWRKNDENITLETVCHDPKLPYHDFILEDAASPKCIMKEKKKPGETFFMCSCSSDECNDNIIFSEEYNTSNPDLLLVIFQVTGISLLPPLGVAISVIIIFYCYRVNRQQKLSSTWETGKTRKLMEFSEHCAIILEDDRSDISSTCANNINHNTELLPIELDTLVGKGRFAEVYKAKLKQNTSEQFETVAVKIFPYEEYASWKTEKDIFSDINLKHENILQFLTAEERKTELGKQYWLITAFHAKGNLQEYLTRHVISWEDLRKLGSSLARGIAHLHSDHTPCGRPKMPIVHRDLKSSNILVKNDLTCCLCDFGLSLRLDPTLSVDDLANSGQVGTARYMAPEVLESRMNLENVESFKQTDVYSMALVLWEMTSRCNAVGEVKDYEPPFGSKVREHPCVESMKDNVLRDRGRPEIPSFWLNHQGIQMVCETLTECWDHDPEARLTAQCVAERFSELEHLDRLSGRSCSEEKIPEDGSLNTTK
Serine/threonine-protein kinase Chk1, sequence (O14757 whole entry): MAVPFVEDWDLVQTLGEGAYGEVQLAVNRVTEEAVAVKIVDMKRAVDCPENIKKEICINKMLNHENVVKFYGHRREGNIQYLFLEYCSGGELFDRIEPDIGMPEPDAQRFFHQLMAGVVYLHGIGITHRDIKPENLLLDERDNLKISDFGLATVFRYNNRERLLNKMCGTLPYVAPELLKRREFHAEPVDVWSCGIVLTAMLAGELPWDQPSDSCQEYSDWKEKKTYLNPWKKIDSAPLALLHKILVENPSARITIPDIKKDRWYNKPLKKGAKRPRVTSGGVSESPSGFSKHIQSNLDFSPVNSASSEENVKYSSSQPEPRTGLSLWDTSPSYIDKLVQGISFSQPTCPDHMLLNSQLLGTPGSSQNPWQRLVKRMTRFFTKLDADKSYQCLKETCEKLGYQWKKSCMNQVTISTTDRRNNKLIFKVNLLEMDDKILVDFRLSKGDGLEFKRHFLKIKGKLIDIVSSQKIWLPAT
SRSF protein kinase 3, sequence (Q9UPE1 whole entry): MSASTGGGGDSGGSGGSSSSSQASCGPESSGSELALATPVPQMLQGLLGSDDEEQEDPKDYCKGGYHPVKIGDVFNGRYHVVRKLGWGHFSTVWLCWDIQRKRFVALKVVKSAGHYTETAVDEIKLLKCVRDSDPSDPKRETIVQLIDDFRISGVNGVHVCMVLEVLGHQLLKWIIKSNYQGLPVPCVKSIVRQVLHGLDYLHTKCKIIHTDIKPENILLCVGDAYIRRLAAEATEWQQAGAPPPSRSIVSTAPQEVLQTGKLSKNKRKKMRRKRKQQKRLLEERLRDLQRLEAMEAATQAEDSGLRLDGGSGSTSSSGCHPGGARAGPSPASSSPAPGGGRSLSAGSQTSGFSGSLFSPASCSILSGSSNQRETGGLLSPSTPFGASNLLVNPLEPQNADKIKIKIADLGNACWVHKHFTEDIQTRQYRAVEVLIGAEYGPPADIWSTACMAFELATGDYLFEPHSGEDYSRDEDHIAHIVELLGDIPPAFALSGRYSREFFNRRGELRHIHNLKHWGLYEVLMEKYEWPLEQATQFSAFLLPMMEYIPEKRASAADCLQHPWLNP
Mitogen-activated protein kinase kinase kinase kinase 5, sequence (Q9Y4K4 whole entry): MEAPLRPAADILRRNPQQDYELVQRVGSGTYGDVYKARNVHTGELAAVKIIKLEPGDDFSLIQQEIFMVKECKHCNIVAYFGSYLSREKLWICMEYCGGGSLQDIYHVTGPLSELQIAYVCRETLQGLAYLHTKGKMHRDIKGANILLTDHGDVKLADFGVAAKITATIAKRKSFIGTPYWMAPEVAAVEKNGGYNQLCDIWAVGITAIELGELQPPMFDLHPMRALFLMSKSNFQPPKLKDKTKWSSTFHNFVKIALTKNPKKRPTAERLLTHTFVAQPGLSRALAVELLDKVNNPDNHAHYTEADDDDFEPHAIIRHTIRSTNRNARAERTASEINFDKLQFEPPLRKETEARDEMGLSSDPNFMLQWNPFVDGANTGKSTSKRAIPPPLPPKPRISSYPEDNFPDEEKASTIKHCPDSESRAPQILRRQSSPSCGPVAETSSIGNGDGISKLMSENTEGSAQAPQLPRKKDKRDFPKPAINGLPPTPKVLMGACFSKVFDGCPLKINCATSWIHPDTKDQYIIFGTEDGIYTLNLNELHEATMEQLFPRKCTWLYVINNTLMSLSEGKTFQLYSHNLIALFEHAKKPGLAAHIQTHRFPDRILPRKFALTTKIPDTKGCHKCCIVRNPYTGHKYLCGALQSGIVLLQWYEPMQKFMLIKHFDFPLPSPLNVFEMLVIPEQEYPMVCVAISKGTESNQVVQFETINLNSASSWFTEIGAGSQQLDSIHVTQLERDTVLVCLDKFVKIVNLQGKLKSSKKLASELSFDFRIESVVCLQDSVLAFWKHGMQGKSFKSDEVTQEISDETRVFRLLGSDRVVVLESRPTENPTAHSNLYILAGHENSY
Beta-adrenergic receptor kinase 1, sequence (P25098 whole entry): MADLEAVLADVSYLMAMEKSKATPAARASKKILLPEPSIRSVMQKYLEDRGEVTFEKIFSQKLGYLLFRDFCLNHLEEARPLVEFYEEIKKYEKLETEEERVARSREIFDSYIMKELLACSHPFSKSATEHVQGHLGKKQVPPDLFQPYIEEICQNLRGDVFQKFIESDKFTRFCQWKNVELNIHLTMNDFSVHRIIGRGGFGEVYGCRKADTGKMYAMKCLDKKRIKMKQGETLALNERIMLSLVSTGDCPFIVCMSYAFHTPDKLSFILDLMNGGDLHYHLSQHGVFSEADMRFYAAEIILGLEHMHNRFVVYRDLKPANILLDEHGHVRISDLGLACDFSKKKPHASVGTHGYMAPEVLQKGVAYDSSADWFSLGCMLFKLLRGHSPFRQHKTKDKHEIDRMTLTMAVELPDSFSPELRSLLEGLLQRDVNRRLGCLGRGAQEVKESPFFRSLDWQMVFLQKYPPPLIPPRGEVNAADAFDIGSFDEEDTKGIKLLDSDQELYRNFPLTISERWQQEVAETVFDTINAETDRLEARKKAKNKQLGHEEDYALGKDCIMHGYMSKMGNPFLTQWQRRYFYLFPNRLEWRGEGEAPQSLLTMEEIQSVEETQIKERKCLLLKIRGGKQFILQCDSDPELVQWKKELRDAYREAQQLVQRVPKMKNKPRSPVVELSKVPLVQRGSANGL
Bone morphogenetic protein receptor type-1B, sequence (O00238 whole entry): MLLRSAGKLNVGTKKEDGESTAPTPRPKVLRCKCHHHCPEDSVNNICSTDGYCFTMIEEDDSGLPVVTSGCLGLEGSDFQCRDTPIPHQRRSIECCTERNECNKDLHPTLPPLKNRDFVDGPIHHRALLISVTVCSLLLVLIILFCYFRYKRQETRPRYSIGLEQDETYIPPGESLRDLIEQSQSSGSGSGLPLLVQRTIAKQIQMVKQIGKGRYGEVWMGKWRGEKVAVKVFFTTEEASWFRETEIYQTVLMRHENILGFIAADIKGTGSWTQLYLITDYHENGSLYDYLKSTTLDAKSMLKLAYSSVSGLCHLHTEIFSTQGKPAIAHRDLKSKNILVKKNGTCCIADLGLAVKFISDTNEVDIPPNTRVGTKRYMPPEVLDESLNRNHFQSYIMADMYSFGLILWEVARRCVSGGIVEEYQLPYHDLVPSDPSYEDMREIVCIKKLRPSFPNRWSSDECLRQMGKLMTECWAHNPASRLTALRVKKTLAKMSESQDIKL
G protein-coupled receptor kinase 3, sequence (P35626 whole entry): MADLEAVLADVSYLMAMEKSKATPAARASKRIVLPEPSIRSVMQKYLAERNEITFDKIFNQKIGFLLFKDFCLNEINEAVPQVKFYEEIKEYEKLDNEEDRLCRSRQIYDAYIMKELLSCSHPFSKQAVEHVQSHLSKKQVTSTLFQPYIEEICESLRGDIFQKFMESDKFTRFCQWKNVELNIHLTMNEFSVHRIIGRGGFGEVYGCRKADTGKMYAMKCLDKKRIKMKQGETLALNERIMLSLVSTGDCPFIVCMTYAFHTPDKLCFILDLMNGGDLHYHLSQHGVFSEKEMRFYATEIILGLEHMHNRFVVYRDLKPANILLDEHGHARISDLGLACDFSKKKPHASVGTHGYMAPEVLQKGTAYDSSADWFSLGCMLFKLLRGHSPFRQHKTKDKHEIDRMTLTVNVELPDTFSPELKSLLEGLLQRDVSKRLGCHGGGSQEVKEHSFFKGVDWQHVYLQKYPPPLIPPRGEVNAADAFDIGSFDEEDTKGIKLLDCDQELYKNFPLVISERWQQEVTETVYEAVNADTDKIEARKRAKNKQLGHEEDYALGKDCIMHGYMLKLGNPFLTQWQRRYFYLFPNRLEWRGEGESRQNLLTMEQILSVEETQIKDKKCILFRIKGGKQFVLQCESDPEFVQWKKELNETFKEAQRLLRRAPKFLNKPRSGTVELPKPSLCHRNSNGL
SRSF protein kinase 2, sequence (P78362 whole entry): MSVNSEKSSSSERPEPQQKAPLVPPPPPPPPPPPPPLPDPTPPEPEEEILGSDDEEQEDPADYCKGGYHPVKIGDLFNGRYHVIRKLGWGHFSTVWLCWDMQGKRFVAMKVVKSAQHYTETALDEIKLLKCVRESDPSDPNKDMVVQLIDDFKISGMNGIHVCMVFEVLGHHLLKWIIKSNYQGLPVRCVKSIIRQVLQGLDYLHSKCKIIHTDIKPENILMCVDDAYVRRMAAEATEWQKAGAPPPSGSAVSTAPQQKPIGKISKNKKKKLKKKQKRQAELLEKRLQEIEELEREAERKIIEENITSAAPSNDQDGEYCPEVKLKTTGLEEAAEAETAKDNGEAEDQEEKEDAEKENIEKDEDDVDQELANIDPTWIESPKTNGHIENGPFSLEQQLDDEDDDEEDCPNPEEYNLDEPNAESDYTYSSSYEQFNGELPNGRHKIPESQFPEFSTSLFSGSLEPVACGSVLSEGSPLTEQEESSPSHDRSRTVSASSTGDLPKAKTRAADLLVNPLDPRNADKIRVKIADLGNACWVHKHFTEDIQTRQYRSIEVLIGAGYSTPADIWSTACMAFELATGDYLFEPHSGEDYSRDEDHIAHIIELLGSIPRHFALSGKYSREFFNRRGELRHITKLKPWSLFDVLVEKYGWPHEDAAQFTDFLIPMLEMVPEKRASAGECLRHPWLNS

Compound: CN1C(=O)[C@@H](N2CCc3cn(Cc4ccccc4)nc3C2=O)COc2ccccc21 [TP-030-1]
IC50 [1]: 1 µM
IC50 [2]: 1 µM
IC50 [3]: 1 µM
IC50 [4]: 1 µM
IC50 [5]: 1 µM
IC50 [6]: 1 µM
IC50 [7]: 1 µM
IC50 [8]: 1 µM
IC50 [9]: 1 µM
IC50 [10]: 1 µM
IC50 [11]: 1 µM
inhibition [12]: 6%
inhibition [13]: 3%
IC50 (SRSF protein kinase 3): 1 µM
inhibition [14]: 6%
IC50 (TGF-beta receptor type-1): 1 µM
IC50 [15]: 1 µM
IC50 (SRSF protein kinase 2): 1 µM
IC50 [16]: 1 µM
IC50 [17]: 1 µM
IC50 [18]: 1 µM
IC50 [19]: 1 µM
inhibition [20]: 0%
IC50 (Ephrin type-A receptor 7): 1 µM
IC50 [21]: 1 µM
inhibition [22]: 15%
IC50 [23]: 1 µM
IC50 [24]: 1 µM
IC50 [25]: 1 µM
IC50 [26]: 1 µM
IC50 (Wee1-like protein kinase): 1 µM
IC50 [27]: 1 µM
IC50 [28]: 1 µM
IC50 (TGF-beta receptor type-2): 1 µM
IC50 [29]: 1 µM
IC50 [30]: 1 µM
IC50 [31]: 1 µM
IC50 [32]: 1 µM
inhibition [33]: 5%
IC50 [34]: 1 µM
IC50 [35]: 1 µM
IC50 [36]: 1 µM
inhibition (Rattus norvegicus): -8%
IC50 [37]: 1 µM
IC50 [38]: 1 µM
IC50 (Myotonin-protein kinase): 1 µM

IC50 [1]: 1 µM
IC50 [2]: 1 µM
IC50 [3]: 1 µM
IC50 [4]: 1 µM
IC50 [5]: 1 µM
IC50 [6]: 1 µM
IC50 [7]: 1 µM
IC50 [8]: 1 µM
IC50 [9]: 1 µM
IC50 [10]: 1 µM
IC50 [11]: 1 µM
inhibition [12]: -2%
inhibition [13]: 3%
IC50 (SRSF protein kinase 3): 1 µM
inhibition [14]: 0%
IC50 (TGF-beta receptor type-1): 1 µM
IC50 [15]: 1 µM
IC50 (SRSF protein kinase 2): 1 µM
IC50 [16]: 1 µM
IC50 [17]: 1 µM
IC50 [18]: 1 µM
IC50 [19]: 1 µM
inhibition [20]: -6%
IC50 (Ephrin type-A receptor 7): 1 µM
IC50 [21]: 1 µM
inhibition [22]: 0%
IC50 [23]: 1 µM
IC50 [24]: 1 µM
IC50 [25]: 1 µM
IC50 [26]: 1 µM
IC50 (Wee1-like protein kinase): 1 µM
IC50 [27]: 1 µM
IC50 [28]: 1 µM
IC50 (TGF-beta receptor type-2): 1 µM
IC50 [29]: 1 µM
IC50 [30]: 1 µM
IC50 [31]: 1 µM
IC50 [32]: 1 µM
inhibition [33]: 3%
IC50 [34]: 1 µM
IC50 [35]: 1 µM
IC50 [36]: 1 µM
inhibition (Rattus norvegicus): -9%
IC50 [37]: 1 µM
IC50 [38]: 1 µM
IC50 (Myotonin-protein kinase): 1 µM
Compound: CN1C(=O)[C@@H](N2CCc3cn(CC4CCS(=O)(=O)CC4)nc3C2=O)COc2ccccc21 [TP-030n]
